Entries after “also recorded” stand apart in the source; their conditions may differ.
Tests used:
[1] = system: GluA1 protein in the basolateral amygdala (BLA); experiment: Western blot of GluA1 protein in the BLA after SEFL trauma; assay type: in vivo; details: metyrapone given before the trauma, measured three weeks after the trauma, stressed rats
Experimental: FIG. 1A illustrates an experimental design for Stress-Enhanced Fear Learning (SEFL), a rodent model of PTSD.
(§1) FIGS. 1B-D depict representative Western blot images and graphs of relative optical density ratios (±standard error of the mean (SEM)) of GluA1, GluA2, and GluN1, respectively, and a glyceraldehyde 3-phosphate dehydrogenase (GAPDH) control. […] Glutamate receptor protein changes were measured three weeks after the initial trauma via Western blotting. While the GluA2 subunit of the AMPAR and the GluN1 subunit of the N-methyl-D-aspartate receptor (NMDAR) remained unchanged after trauma, GluA1 increased substantially.
(§2) FIG. 1A illustrates an experimental design using SEFL (7, 8). Protein levels were measured using Western blot, an analytical technique to detect specific proteins in tissue samples.
FIG. 1B depicts representative Western blot images of GluA1 and a control, GAPDH, from the BLA of stressed and unstressed rats, measured three weeks after the trauma.
Because GluA1 increases are observed weeks after the trauma, post-trauma GluA1 ASO infusions directly into the BLA prevented sensitized fear responses usually observed in SEFL (FIGS. 2A-E) (5). […] FIG. 2C depicts representative Western blot images of GluA1 and GAPDH from the BLA of stressed/MSO and stressed/ASO rats. […]

[2] = system: GluA2 subunit of the AMPAR; experiment: Western blot of GluA2 protein in the BLA after SEFL trauma; assay type: in vivo; details: measured three weeks after the trauma; stressed and unstressed rats
Experimental: as §1, §2
FIG. 1C depicts representative Western blot images of GluA2 and GAPDH from the BLA of stressed and unstressed rats, measured three weeks after the trauma.

[3] = system: Stress-Enhanced Fear Learning (SEFL); experiment: Stress-Enhanced Fear Learning (SEFL), a rodent model of PTSD: freezing in Context B; assay type: in vivo, rats
Text: FIG. 1A illustrates an experimental design for Stress-Enhanced Fear Learning (SEFL), a rodent model of PTSD. FIG. 2A illustrates an abbreviated SEFL experimental design. […] FIG. 3A illustrates a SEFL experimental design. […] FIG. 2C depicts representative Western blot images of GluA1 and GAPDH from the BLA of stressed/MSO and stressed/ASO rats. FIG. 2D depicts mean GluA1: GAPDH optical density ratios (±SEM) from the BLA of stressed/MSO and stressed/ASO rats. […] FIG. 2E depicts mean (±SEM) percent freezing in Context B on Day 3. […] FIG. 3C depicts mean freezing (±SEM) in Context B on Day 3.

[4] = system: GluN1 subunit of the N-methyl-D-aspartate receptor (NMDAR); experiment: Western blot of GluN1 protein in the BLA after SEFL trauma; assay type: in vivo; details: measured three weeks after the trauma; stressed and unstressed rats
Experimental: as §1, §2
FIG. 1D depicts representative Western blot images of GluN1 and GAPDH from the BLA of stressed and unstressed rats, measured three weeks after the trauma.

Compound | GluA1: GAPDH optical density ratios in the BLA [1] | GluA1: GAPDH optical density ratios in the BLA ([1]; listed as metyrapone) | GluA2: GAPDH optical density ratios in the BLA (GluA2 levels) [2] | SEFL (stress-enhanced fear learning) ([3]; given before the trauma) | GluN1: GAPDH optical density ratios in the BLA (GluN1 levels) [4] | percent freezing in Context B on Day 3 (sensitized fear, SEFL) ([3]; intra-BLA infusion after the 15-shock stressor (post-trauma), compared with stressed controls, hydrobromide)
CC(C)(C(=O)c1cccnc1)c1cccnc1 [Metyrapone] | prevented GluA1 increases and conferred levels to that of unstressed controls | GluA1 protein levels in the BLA were significantly higher in stressed rats than in unstressed rats and metyrapone-treated rats | Neither stress nor metyrapone had an effect on GluA2 levels | effectively preventing SEFL | Neither stress nor metyrapone had an effect on GluN1 levels | –
Br.C[N+](C)(C)CCCCCNCC12CC3CC(CC(C3)C1)C2.[Br-] [IEM-1460, N,N,H,-Trimethyl-5-[(tricyclo[3.3.1.13,7]dec-1-ylmethyl)amino]-1-pentanaminiumbromide hydrobromide] | – | – | – | – | – | significantly reduces freezing in Context B; also recorded: attenuate SEFL

From patent US12274761B2, “Compositions and methods to detect GLUA1 in brain and to identify the presence of GLUA1-mediated PTSD” (Neurovation Labs, Inc., priority 2016, dated 2025)
